According to ChEMBL document CHEMBL2429737, “Synthesis and study of benzothiazole conjugates in the control of cell proliferation by modulating Ras/MEK/ERK-dependent pathway in MCF-7 cells” (Bioorg Med Chem Lett, 2013):
The source made the active and inactive calls. The rule behind the calls is not given here.

Key:
[1] = Cytotoxicity against HEK cells at 0.25 to 64 ug after 72 hrs by MTT assay; assay type: cell-based; conditions: human, hek293, 72 h
MCF-10A [2] = assay: Selectivity index, ratio of IC50 for human MCF10A cells to IC50 for human MDA-MB-231 cells; assay type: functional
MCF-10A [3] = assay: Cytotoxicity against human MCF10A cells after 72 hrs by MTT assay; assay type: cell-based
MCF7 [4] = assay: Selectivity index, ratio of IC50 for human MCF10A cells to IC50 for human MCF7 cells; assay type: functional
MDA-MB-231 [5] = assay: Cytotoxicity against human MDA-MB-231 cells after 72 hrs by MTT assay; assay type: functional, cell-based; conditions: MDA-MB-231, 72 h
MCF7 [6] = assay: Cytotoxicity against human MCF7 cells after 72 hrs by MTT assay; assay type: functional, cell-based; conditions: MCF7, 72 h
MCF7 [7] = assay: Cytotoxicity against human MCF7 cells after 48 hrs by SRB assay; assay type: functional; conditions: MCF7, 48 h
MDA-MB-231 [8] = assay: Cytotoxicity against human MDA-MB-231 cells after 48 hrs by SRB assay; assay type: functional; conditions: MDA-MB-231, 48 h
MCF7 [9] = assay: Down regulation of VEGF protein expression in human MCF7 cells at 2 to 4 uM after 24 hrs by Western blotting analysis; assay type: functional, cell-based
[10] = biological target: Mitogen-activated protein kinase; ERK1/ERK2 (Homo sapiens) (UniProt P27361+P28482); assay: Inhibition of ERK1/2 phosphorylation in human MCF7 cells at 2 to 4 uM after 24 hrs by Western blotting analysis; assay type: cell-based
MCF7 [11] = assay: Down regulation of MEK1 protein expression in human MCF7 cells at 2 to 4 uM after 24 hrs by Western blotting analysis; assay type: functional, cell-based
MCF7 [12] = assay: Down regulation of Ras protein expression in human MCF7 cells at 2 to 4 uM after 24 hrs by Western blotting analysis; assay type: functional, cell-based
MCF7 [13] = assay: Induction of apoptosis in human MCF7 cells assessed as increase in caspase-9 activity at 2 uM after 24 hrs by fluorescence assay
MCF7 [14] = assay: Down regulation of integrin alphaVbeta3 protein expression in human MCF7 cells at 2 to 4 uM after 24 hrs by Western blotting analysis
MCF7 [15] = assay: Cytotoxicity against human MCF7 cells at 4 uM after 72 hrs by MTT assay; assay type: functional

Mitogen-activated protein kinase; ERK1/ERK2 (Homo sapiens), sequence (P27361 whole entry, looked up): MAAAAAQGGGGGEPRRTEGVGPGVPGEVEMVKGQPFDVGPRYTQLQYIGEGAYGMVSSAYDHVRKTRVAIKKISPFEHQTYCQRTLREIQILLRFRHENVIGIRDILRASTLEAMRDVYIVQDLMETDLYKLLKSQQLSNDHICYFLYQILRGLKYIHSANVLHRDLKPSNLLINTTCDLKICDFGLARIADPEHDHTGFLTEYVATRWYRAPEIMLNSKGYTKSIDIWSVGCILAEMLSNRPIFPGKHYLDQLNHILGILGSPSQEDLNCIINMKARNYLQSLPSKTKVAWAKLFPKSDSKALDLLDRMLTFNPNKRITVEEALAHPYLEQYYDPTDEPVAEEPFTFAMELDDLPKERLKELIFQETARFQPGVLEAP
Mitogen-activated protein kinase; ERK1/ERK2 (Homo sapiens), sequence (P28482 whole entry, looked up): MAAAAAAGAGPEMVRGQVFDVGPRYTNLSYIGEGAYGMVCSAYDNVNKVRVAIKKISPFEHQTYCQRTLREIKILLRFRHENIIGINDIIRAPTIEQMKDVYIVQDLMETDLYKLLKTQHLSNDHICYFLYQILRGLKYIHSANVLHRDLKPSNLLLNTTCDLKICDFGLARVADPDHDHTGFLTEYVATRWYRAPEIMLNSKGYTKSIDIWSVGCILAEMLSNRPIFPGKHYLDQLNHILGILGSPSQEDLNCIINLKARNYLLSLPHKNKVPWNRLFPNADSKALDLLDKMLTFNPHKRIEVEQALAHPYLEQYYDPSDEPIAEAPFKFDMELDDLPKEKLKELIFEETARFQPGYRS

inhibition [10] | SMILES | Activity [1] | Ratio IC50 (MCF-10A [2]) | IC50 (MCF-10A [3]) | Ratio IC50 (MCF7 [4]) | IC50 (MDA-MB-231 [5]) | IC50 (MCF7 [6]) | GI50 (MCF7 [7]) | GI50 (MDA-MB-231 [8]) | Activity (MCF7 [9]) | Activity (MCF7 [11]) | Activity (MCF7 [12]) | Activity (MCF7 [13]) | Activity (MCF7 [14]) | Activity (MCF7 [15])
– | COc1cc(-c2ccc(C)n2-c2ccc(-c3nc4ccccc4s3)cc2)cc(OC)c1OC | Non-toxic | 2.42 | 38.8 µM | 8.87 | 16 µM | 4.37 µM | 2.34 µM | 3.45 µM | – | – | – | – | – | –
– | COc1ccc(-c2ccc(C)n2-c2ccc(-c3nc4ccc(F)cc4s3)cc2)cc1 | Non-toxic | 1.98 | 37.8 µM | 14.85 | 19 µM | 2.54 µM | 2.12 µM | 3.07 µM | – | – | – | – | – | –
– | Cc1ccc(-c2ccc(F)cc2)n1-c1ccc(-c2nc3ccccc3s2)cc1 | Non-toxic | 3.4 | 40 µM | 12.57 | 11.8 µM | 3.18 µM | 2.62 µM | 4.34 µM | – | – | – | – | – | –
– | COc1ccc(-c2ccc(C)n2-c2ccc(-c3nc4ccc(OC)cc4s3)cc2)cc1 | Non-toxic | 2.23 | 30.6 µM | 6.36 | 12.7 µM | 4.83 µM | 3.09 µM | 4.12 µM | – | – | – | – | – | –
– | Cc1ccc(-c2ccc(C)n2-c2ccc(-c3nc4ccccc4s3)cc2)cc1 | Non-toxic | 1.71 | 30.6 µM | 9.1 | 17.8 µM | 3.1 µM | 2.5 µM | 4.4 µM | – | – | – | – | – | –
– | COc1ccc(-c2ccc(C)n2-c2ccc(-c3nc4ccccc4s3)cc2)cc1 | Non-toxic | 2.44 | 36.3 µM | 11.13 | 14.8 µM | 3.25 µM | 2.78 µM | 3.99 µM | – | – | – | – | – | –
Active | COc1cc([C@@H]2c3cc4c(cc3[C@@H](O[C@@H]3O[C@@H]5CO[C@@H](C)O[C@H]5[C@H](O)[C@H]3O)[C@H]3COC(=O)[C@H]23)OCO4)cc(OC)c1O [ETOPOSIDE] | – | 24.17 | 36.3 µM | 30.21 | 1.5 µM | 1.2 µM | 0.87 µM | 1.67 µM | Active | Active | Active | Active | Active | –
– | Cc1ccc(-c2ccc([N+](=O)[O-])cc2)n1-c1ccc(-c2nc3ccc(F)cc3s2)cc1 | Non-toxic | 2.29 | 39 µM | 16.4 | 17 µM | 2.37 µM | 0.918 µM | 1.67 µM | – | – | – | – | – | –
– | COc1cc2nc(-c3ccc(-n4c(C)ccc4-c4ccc(C)cc4)cc3)sc2c(OC)c1OC | Non-toxic | 3.45 | 42.5 µM | 13.66 | 12.3 µM | 3.11 µM | 2.91 µM | 4.14 µM | – | – | – | – | – | –
– | COc1ccc2nc(-c3ccc(-n4c(C)ccc4-c4ccc([N+](=O)[O-])cc4)cc3)sc2c1 | Non-toxic | 2.74 | 34.9 µM | 25.3 | 12.7 µM | – | 3.17 µM | 4.56 µM | – | – | – | – | – | –
Active | COc1ccc2nc(-c3ccc(-n4c(C)ccc4-c4cc(OC)c(OC)c(OC)c4)cc3)sc2c1 | Non-toxic | 2.92 | 37.8 µM | 24.84 | 12.9 µM | 1.52 µM | 0.92 µM | 1.76 µM | Active | Active | Active | Active | Active | 50%
– | Cc1ccc(-c2ccc([N+](=O)[O-])cc2)n1-c1ccc(-c2nc3ccccc3s2)cc1 | Non-toxic | 3.2 | 38.8 µM | 12.47 | 12.1 µM | 3.11 µM | 2.54 µM | 3.9 µM | – | – | – | – | – | –
– | COc1ccc(-c2ccc(C)n2-c2ccc(-c3nc4cc(OC)c(OC)c(OC)c4s3)cc2)cc1 | Non-toxic | 3.5 | 43.9 µM | 19.945 | 12.5 µM | 2.2 µM | 1.23 µM | 2.24 µM | – | – | – | – | – | 50%
– | COc1cc(-c2ccc(C)n2-c2ccc(-c3nc4ccc(F)cc4s3)cc2)cc(OC)c1OC | Non-toxic | 2.6 | 40 µM | 16.93 | 15.4 µM | 2.36 µM | 1.41 µM | 3 µM | – | – | – | – | – | –
– | COc1ccc2nc(-c3ccc(-n4c(C)ccc4-c4ccc(C)cc4)cc3)sc2c1 | Non-toxic | 1.65 | 34 µM | 11.92 | 20.5 µM | 2.85 µM | 2.57 µM | 4.01 µM | – | – | – | – | – | –
– | Cc1ccc(-c2ccc(C)n2-c2ccc(-c3nc4ccc(F)cc4s3)cc2)cc1 | Non-toxic | 2.01 | 33.6 µM | 11.3 | 16.7 µM | 2.97 µM | 2.15 µM | 3.14 µM | – | – | – | – | – | –
– | Cc1ccc(-c2ccc(F)cc2)n1-c1ccc(-c2nc3ccc(F)cc3s2)cc1 | Non-toxic | 2.68 | 37.8 µM | 13.48 | 14.1 µM | 2.8 µM | 1.79 µM | 3.03 µM | – | – | – | – | – | –
– | COc1cc2nc(-c3ccc(-n4c(C)ccc4-c4ccc(F)cc4)cc3)sc2c(OC)c1OC | Non-toxic | 3.29 | 43.2 µM | 14.83 | 13.1 µM | 2.91 µM | 2.67 µM | 3.94 µM | – | – | – | – | – | –
– | COc1ccc2nc(-c3ccc(-n4c(C)ccc4-c4ccc(F)cc4)cc3)sc2c1 | Non-toxic | 2.77 | 38.3 µM | 13.67 | 13.8 µM | 2.8 µM | 2.48 µM | 4.06 µM | – | – | – | – | – | –
